Where a name gives a salt, the structure may show the parent alone. ± gives the uncertainty stated by the source.
Experiments:
[1] = system: Klebsiella pneumoniae ATCC 13882; assay: rate of pH (A557-A630) increase, Gompertz fit (10^-4 s-1); higher = faster ureolysis; extreme values may be limits of the assay
Method: (§1)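 Klebsiella pneumoniae ATCC 13882 (start OD600 0.05) grown in M9U medium with 40 mM urea and phenol red plus inhibitor, in triplicate in 96-well plates. A557 and OD630 were read every 15 min for 24 h. Ureolysis was followed as the pH-related A557-A630: onset time, Gompertz-fit rate and final value. Growth was followed as OD630.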

[2] = system: Klebsiella pneumoniae ATCC 13882; assay: onset of ureolytic pH increase; higher = more delayed ureolysis (inhibition)
Method: as §1

[3] = system: Klebsiella pneumoniae ATCC 13882; assay: final OD630 (growth) after 24 h; higher = more bacterial growth; extreme values may be limits of the assay
Method: as §1

[4] = system: Klebsiella pneumoniae ATCC 13882; assay: final pH-related absorbance (A557-A630) after 24 h (absorbance units); higher = more ureolysis; extreme values may be limits of the assay
Method: as §1

Compound	rate of pH ([1]; 0.1 mM)	rate of pH ([1]; 1 mM)	rate of pH ([1]; 10 mM)	onset of ureolytic pH increase ([2]; 0.1 mM) [min]	onset of ureolytic pH increase ([2]; 1 mM) [min]	onset of ureolytic pH increase ([2]; 10 mM) [min]	final OD630 ([3]; 0.1 mM)	final OD630 ([3]; 1 mM)	final OD630 ([3]; 10 mM)	final pH-related absorbance ([4]; 0.1 mM)	final pH-related absorbance ([4]; 1 mM)	final pH-related absorbance ([4]; 10 mM)	further results
N=C(N)N [Guanidine hydrochloride]	1.94 ± 0.086	2.02 ± 0.066	2.03 ± 0.17	433 ± 6.4	425 ± 5.7	436 ± 12	0.498 ± 0.006	0.505 ± 0.006	0.503 ± 0.004	0.249 ± 0.007	0.27 ± 0.011	0.286 ± 0.009	
Oc1ccc(O)cc1 [Hydroquinone]	1.78 ± 0.19	1.58 ± 0.096		680 ± 7.1	704 ± 40		0.408 ± 0.021	0.423 ± 0.038		0.155 ± 0.0064	0.157 ± 0.0044		
NC(=O)NO [Hydroxyurea]	1.89 ± 0.32	1.01 ± 0.031	0	436 ± 6.5	442 ± 25	> 900	0.483 ± 0.006	0.452 ± 0.031	0.262 ± 0.002	0.258 ± 0.007	0.198 ± 0.029	0	
c1c[nH]cn1 [Imidazole]	1.457 ± 0.0067	1.48 ± 0.046	1.43 ± 0.029	562.8 ± 3.5	565 ± 7.1	619.4 ± 3.2	0.423 ± 0.0002	0.42 ± 0.0034	0.439 ± 0.0039	0.163 ± 0.0003	0.164 ± 0.0067	0.169 ± 0.0015	
O=C(O)CNCC(=O)O [Iminodiacetic acid]													rate of pH ([1]; 0.008 mM): 2.086 ± 0.011; rate of pH ([1]; 0.08 mM): 2.13 ± 0.052; rate of pH ([1]; 0.802 mM): 1.82 ± 0.045; onset of ureolytic pH increase ([2]; 0.008 mM): 565.5 ± 3.2 min; onset of ureolytic pH increase ([2]; 0.08 mM): 562.6 ± 1.5 min; onset of ureolytic pH increase ([2]; 0.802 mM): 663 ± 19 min; final OD630 ([3]; 0.008 mM): 0.44 ± 0.003; final OD630 ([3]; 0.08 mM): 0.429 ± 0.003; final OD630 ([3]; 0.802 mM): 0.373 ± 0.011; final pH-related absorbance ([4]; 0.008 mM): 0.184 ± 0.004; final pH-related absorbance ([4]; 0.08 mM): 0.211 ± 0.017; final pH-related absorbance ([4]; 0.802 mM): 0.209 ± 0.007
N=C(N)NCCC[C@H](N)C(=O)O [L-arginine]													rate of pH ([1]; 0.094 mM): 1.72 ± 0.018; rate of pH ([1]; 0.943 mM): 1.69 ± 0.018; rate of pH ([1]; 9.43 mM): 1.66 ± 0.021; onset of ureolytic pH increase ([2]; 0.094 mM): 636.03 ± 0.24 min; onset of ureolytic pH increase ([2]; 0.943 mM): 558.6 ± 4.4 min; onset of ureolytic pH increase ([2]; 9.43 mM): 592.5 ± 2.5 min; final OD630 ([3]; 0.094 mM): 0.472 ± 0.003; final OD630 ([3]; 0.943 mM): 0.52 ± 0.0037; final OD630 ([3]; 9.43 mM): 0.519 ± 0.0064; final pH-related absorbance ([4]; 0.094 mM): 0.23 ± 0.0075; final pH-related absorbance ([4]; 0.943 mM): 0.238 ± 0.0024; final pH-related absorbance ([4]; 9.43 mM): 0.307 ± 0.0066
CCOC(=O)[C@@H](N)CS [L-cysteine ethyl ester hydrochloride]	2.06 ± 0.11	0	0	441.6 ± 4	> 900	> 900	0.547 ± 0.018	0.299 ± 0.003	0.422 ± 0.045	0.394 ± 0.031	0	0	
COC(=O)[C@@H](N)CS [L-cysteine methyl ester hydrochloride]	1.55 ± 0.16	0		595.25 ± 0.35	> 900		0.457 ± 0.0075	0.261 ± 0.0026		0.566 ± 0.001	0		
N[C@@H](CS)C(=O)O [L-cysteine]	1.656 ± 0.0059	0	0	952 ± 1.8	> 1500	> 1500	0.431 ± 0.0025	0.334 ± 0.008	0.289 ± 0.01	0.225 ± 0.0018	0	0	
